# Reference: patent US20090111836A1, “Angular Pyranocoumarins, Process for Preparation and Uses Thereof” (CITY UNIVERSITY OF HONG KONG, priority 2007, published 2009)
# Entries after “also recorded” stand apart in the source; their conditions may differ.
# Columns and labels:
# Assay type in all cases: cell-based, human
# HepG2-DR cells [1] = experiment: SRB growth inhibition assay, HepG2-DR; conditions: IC50 HepG2-DR / IC50 HepG2
# Procedure: K562, K562-DR, HepG2, HepG2-DR were cultured in RPMI-1640 medium containing 10% fetal bovine serum and 100 U/mL, antibiotics. […] Drug test: […] New calorimetric cytotoxicity assay for anticancer-drug screening. […] Mosmann T. Rapid colorimetric assay for cellular growth and survival: application to proliferation and cytotoxicity assays. […] Gerlier D, Thomasset N. […] Each growth inhibition experiment must be repeated three times and results are expressed as mean±standard deviation (SD). Solvents and media were included as blank control. In SRB assay, cells are inoculated at 5000 cells/well in a 96-well microplate and incubated overnight to let cells adhere. Drug treatment lasts for 72 hours and cells are fixed for 1 hour at 4° C. with 50 μl ice-cold 15% trichloroacetic acid and washed with triple-distilled water 5 times. […] The protein-bound dye is dissolved in 100 μl per well of 10 mM Tris base (pH 10.5). The color intensity of SRB, which positively correlate to cell number in preliminary experiments, is estimated at OD 515 nm.
# P-gp [2] = experiment: Immunoblotting analysis of P-gp expression, K562-DR; conditions: 4 μM, 72 hours
# Procedure: (§1) Immunoblotting analysis of P-gp expression: cells were treated with 4 μM of cis-DMDCK, 4 μM of cis-DMDBK, 4 μM of trans-DMDCK, or 4 μM of trans-DMDBK for 72 hours. Treated cells were collected and mixed well in ice-cold lysis buffer (50 mM Tris pH7.4, 100 mM NaCl, 2 mM EDTA, 1% sodium deoxycholate, 0.1% SDS, 1% triton X-100, 2 mM PMSF, 1% aprotinin) for 30 minutes and then centrifuged to get the total protein. Protein concentration was determined using Bradford assay. In this experiment, 50 μg total protein was separated by 8% SDS-PAGE and electro-transferred to nitrocellulose membranes. The membrane was blocked by 5% skim milk/0.1% Tween-20/TBS (10 mM Tris pH7.5, 100 mM NaCl), and then incubated with anti-P-pg antibody for 1 hour, followed by horseradish-peroxidase-conjugated secondary antibody for another 1 hour. Protein bands were detected by the ECL method.
# K562-DR cells = experiment: Reversal of multidrug resistance (fold decrease of anticancer drug IC50), K562-DR; conditions: 4 μM test compound
# Procedure: Cells and cell culture: cell lines used in the experiments are human hepatoma cell line (HepG2), human leukemia cell line (K562), human epidermoid carcinoma cell line (KB-3-1) and their multidrug resistant sublines HepG2-DR, K562-DR. and KB V1. The culture conditions for all cells are following: at 37° C. and 5% CO2), KB-3-1 and KBV1 were cultured in MEM medium containing 10% fetal bovine serum and 100 U/mL antibiotics; K562, K562-DR, HepG2, HepG2-DR were cultured in RPMI-1640 medium containing 10% fetal bovine serum and 100 U/mL, antibiotics. For maintaining the phenotypic characteristics of multidrug resistance, 1.2 μM and 0.1 μM doxorubicin were respectively added into the mediums of HepG2-DR and K562-DR; 200 ng/mL vinblastine was added into the medium of KBV1. Drug resistant cells were grown in drug free medium for at least 7 days before test.
# Each growth inhibition experiment must be repeated three times and results are expressed as mean±standard deviation (SD). Solvents and media were included as blank control.
# In MTT assay, cells are inoculated at 5000 cells/well and are incubated overnight. Drug treatment lasts for 68 h. MTT (5 mg/ml in PBS) is added to each well (1:10 dilution). After incubation for 4 hour at 37° C., 5% CO2, 100 μl of stop solution (10% SDS-50% isobutanol-0.01N HCl) is added to each well to stop the reaction. Viable cell number is estimated by correlating to OD at 570 nm.
# 1. Materials and methods: the same with I.
# To evaluate the multidrug resistance reversing ability of (±)-Praeruptorin A derivatives, IC50 values of anticancer drugs in the presence and absence of cis-DMDCK, cis-DMDBK, trans-DMDCK, or trans-DMDBK at certain concentration were determined in HepG2-DR, K562-DR and KB V1 cells. The fold decrease of IC50 value of an anticancer drug in certain cell line achieved by a test compound is calculated (fold decrease=IC50 of an anti-tumor drug alone/IC50 of the anti-tumor drug in combination with the test compound) and is used for evaluating the ability of the test compound to reduce drug resistance. The larger the fold decrease value is, the stronger its ability to reverse drug resistance is. The results were average values of three repetitive tests. Verapamil (P-glycoprotein modulator) is the positive control.
# HepG2-DR cells [3] = experiment: Cell cycle distribution by flow cytometry (doxorubicin-induced G2/M arrest), HepG2-DR; conditions: HepG2-DR; for Cell cycle distribution, G0/G1 / Cell cycle distribution, G2/M / Cell cycle distribution, S / Cell cycle distribution, SubG1: 48 h; for Concentration of test compound that reduced the effective doxorubicin concentration (G2/M arrest) from 50 to 1 μM: combination with doxorubicin
# Procedure: 1.2 Instruments: FACSCAN flow cytometry (Becton Dickinson Immunocytometry Systems, San Jose, Calif.), the obtained data were analyzed using the software of Macintosh CellQuest.
# 1.3 Cell lines: HepG2, HepG2-DR.
# 1.4 Drug treatment: HepG2 and HepG2-DR cells were respectively treated with each of cis-DMDCK, cis-DMDBK, trans-DMDCK, trans-DMDBK and doxorubicin for 48 hours, or treated respectively with the combination of doxorubicin and one of cis-DMDCK, cis-DMDBK, trans-DMDCK, trans-DMDBK for 48 hours.
# 1.5 Treatment and detection of sample cells: after washed twice by ice-cold PBS, the cells were fixed with 70% ethanol at −20° C. overnight. The fixed cells were washed by PBS once and resuspended in 1 mL of PBS containing 100 μg/mL RNAase A and incubated at 37° C. for 30 minutes. Finally, propidium iodide solution (final concentration is 40 μg/mL,) was added to bind with DNA and incubated at room temperature for 5-10 minutes. Cells were analyzed by FACSCAN flow cytometry immediately.
# P-gp [4] = experiment: Immunoblotting analysis of P-gp expression, KB V1; conditions: KB V1, 4 μM, 72 hours
# Procedure: as §1
# [5] = 1 μM doxorubicin + 1 μM test compound
# [6] = 1 μM doxorubicin + 2 μM test compound
# [7] = 1 μM doxorubicin + 4 μM test compound
# [8] = 1 μM doxorubicin + 0.5 μM test compound
SMILES,Resistant ratio (HepG2-DR cells [1]),Change in P-gp (MDR1) expression level (P-gp [2]),"Reversing parameter: fold decrease of IC50, verapamil (K562-DR cells)",Reversing parameter: fold decrease of IC50 of Doxorubicin (K562-DR cells),Reversing parameter: fold decrease of IC50 of Puromycin (K562-DR cells),Reversing parameter: fold decrease of IC50 of Vinblastine (K562-DR cells),"Cell cycle distribution, G0/G1 (HepG2-DR cells [3]; [5])","Cell cycle distribution, G2/M (HepG2-DR cells [3]; [5])","Cell cycle distribution, S (HepG2-DR cells [3]; [5])","Cell cycle distribution, SubG1 (HepG2-DR cells [3]; [5])","Cell cycle distribution, G0/G1 (HepG2-DR cells [3]; [6])","Cell cycle distribution, G2/M (HepG2-DR cells [3]; [6])","Cell cycle distribution, S (HepG2-DR cells [3]; [6])","Cell cycle distribution, SubG1 (HepG2-DR cells [3]; [6])",Effect on cell cycle by itself (HepG2-DR cells [3]; 4 μM alone),"Cell cycle distribution, G0/G1 (HepG2-DR cells [3]; 4 μM alone)","Cell cycle distribution, G2/M (HepG2-DR cells [3]; 4 μM alone)","Cell cycle distribution, S (HepG2-DR cells [3]; 4 μM alone)","Cell cycle distribution, SubG1 (HepG2-DR cells [3]; 4 μM alone)",Concentration of test compound that reduced the effective doxorubicin concentration (G2/M arrest) from 50 to 1 μM (HepG2-DR cells [3]),also measured
"COc1ccc(C(=O)O[C@@H]2[C@@H](OC(=O)c3ccc(OC)c(OC)c3)c3c(ccc4ccc(=O)oc34)OC2(C)C)cc1OC (racemic) [trans-DMDBK, (±)-3′-O,4′-O-bis(3,4-dimethoxybenzoyl)-trans-khellactone]",1.31,no detectable alteration; also recorded: not observed,9.8 ± 2.1 fold,7.0 ± 2.2 fold,6.7 ± 0.4 fold,11.0 ± 0.6 fold,34.60 ± 2.58%,49.53 ± 0.69%,7.61 ± 3.69%,3.31 ± 0.89%,17.56 ± 2.20%,67.89 ± 1.19%,7.03 ± 2.34%,5.30 ± 2.52%,no effect,49.57 ± 0.15%,34.41 ± 3.70%,6.17 ± 1.55%,1.33 ± 0.24%,4 µM,"Cell cycle distribution, G0/G1 (HepG2-DR cells [3]; [7]): 5.37 ± 1.06%; Cell cycle distribution, G2/M (HepG2-DR cells [3]; [7]): 81.56 ± 2.62%; Cell cycle distribution, S (HepG2-DR cells [3]; [7]): 4.71 ± 3.62%; Cell cycle distribution, SubG1 (HepG2-DR cells [3]; [7]): 5.11 ± 2.84%; Change in P-gp (MDR1) expression level (P-gp [4]): no detectable alteration; also recorded: not observed"
"COc1ccc(/C=C/C(=O)O[C@@H]2[C@@H](OC(=O)/C=C/c3ccc(OC)c(OC)c3)c3c(ccc4ccc(=O)oc34)OC2(C)C)cc1OC (racemic) [trans-DMDCK, (±)-3′-O,4′-O-bis(3,4-dimethoxycinnamoyl)-trans-khellactone]",1.36,no detectable alteration; also recorded: not observed,27.8 ± 8.7 fold,16.1 ± 9.6 fold,31.1 ± 16.7 fold,31.6 ± 5.1 fold,34.29 ± 0.21%,48.46 ± 2.52%,8.80 ± 3.64%,3.94 ± 0.77%,21.21 ± 1.48%,64.06 ± 3.56%,5.79 ± 4.05%,6.55 ± 0.12%,no effect,47.46 ± 0.55%,33.42 ± 1.98%,7.97 ± 1.05%,2.07 ± 0.06%,4 µM,"Cell cycle distribution, G0/G1 (HepG2-DR cells [3]; [7]): 6.03 ± 0.91%; Cell cycle distribution, G2/M (HepG2-DR cells [3]; [7]): 79.52 ± 0.66%; Cell cycle distribution, S (HepG2-DR cells [3]; [7]): 5.70 ± 4.20%; Cell cycle distribution, SubG1 (HepG2-DR cells [3]; [7]): 4.29 ± 1.99%; Change in P-gp (MDR1) expression level (P-gp [4]): no detectable alteration; also recorded: not observed"
"COc1ccc(/C=C/C(=O)O[C@@H]2c3c(ccc4ccc(=O)oc34)OC(C)(C)[C@@H]2OC(=O)/C=C/c2ccc(OC)c(OC)c2)cc1OC (racemic) [cis-DMDCK, (±)-3′-O,4′-O-bis(3,4-dimethoxycinnamoyl)-cis-khellactone]",1.29,no detectable alteration; also recorded: not observed,169.9 ± 39.4 fold,28.8 ± 8.9 fold,38.8 ± 8.9 fold,138.7 ± 39.6 fold,4.39 ± 1.50%,81.42 ± 6.02%,5.36 ± 3.13%,5.59 ± 4.35%,4.51 ± 0.45%,77.12 ± 3.36%,8.87 ± 4.04%,6.40 ± 5.54%,no effect,52.10 ± 0.61%,33.20 ± 2.05%,8.38 ± 4.24%,2.25 ± 0.51%,1 µM,"Cell cycle distribution, G0/G1 (HepG2-DR cells [3]; [8]): 8.46 ± 1.63%; Cell cycle distribution, G2/M (HepG2-DR cells [3]; [8]): 79.79 ± 4.56%; Cell cycle distribution, S (HepG2-DR cells [3]; [8]): 6.52 ± 1.76%; Cell cycle distribution, SubG1 (HepG2-DR cells [3]; [8]): 4.35 ± 0.59%; Change in P-gp (MDR1) expression level (P-gp [4]): no detectable alteration; also recorded: not observed"
